# Results published in US7951836B2, “Substituted phenyl methanone derivatives” (Hoffmann-La Roche Inc., priority 2006, dated 2011).
# pIC50: −log10 of the molar value.
# Molecular target: T1, mGlyT-1b (Mus musculus, UniProt P28571)
# T1 construct: host or cells: Flp-in-CHO
# T1 sequence (P28571 1-651 isoform P28571-2): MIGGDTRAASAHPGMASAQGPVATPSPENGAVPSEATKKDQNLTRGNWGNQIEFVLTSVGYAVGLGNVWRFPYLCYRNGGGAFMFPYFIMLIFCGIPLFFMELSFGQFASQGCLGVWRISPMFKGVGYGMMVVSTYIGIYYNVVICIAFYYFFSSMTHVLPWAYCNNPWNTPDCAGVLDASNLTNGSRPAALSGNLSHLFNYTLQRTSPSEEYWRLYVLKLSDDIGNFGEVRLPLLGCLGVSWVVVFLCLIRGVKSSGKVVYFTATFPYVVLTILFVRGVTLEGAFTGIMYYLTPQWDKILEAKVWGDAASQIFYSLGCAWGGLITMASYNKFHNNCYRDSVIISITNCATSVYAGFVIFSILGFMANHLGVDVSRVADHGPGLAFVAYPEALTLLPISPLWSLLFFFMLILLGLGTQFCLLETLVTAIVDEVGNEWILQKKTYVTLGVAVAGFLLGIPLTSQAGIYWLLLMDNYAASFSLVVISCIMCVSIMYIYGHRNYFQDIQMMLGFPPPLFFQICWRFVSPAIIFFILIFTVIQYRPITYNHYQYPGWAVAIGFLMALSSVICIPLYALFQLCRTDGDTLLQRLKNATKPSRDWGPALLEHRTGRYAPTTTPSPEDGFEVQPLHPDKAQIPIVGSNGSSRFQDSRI
# Test: Glycine uptake inhibition assay (mGlyT-1b)
# Assay type: cell-based
# Settings: not given
# Description: DMEM complete medium: Nutrient mixture F-12 (Gibco Life-technologies), fetal bovine serum (FBS) 5%, (Gibco life technologies), Penicillin/Streptomycin 1% (Gibco life technologies), Hygromycin 0.6 mg/ml (Gibco life technologies), Glutamine 1 mM Gibco life technologies) Uptake buffer (UB): 150 mM NaCl, 10 mM Hepes-Tris, pH 7.4, 1 mM CaCl2, 2.5 mM KCl, 2.5 mM MgSO4, 10 mM (+) D-glucose. Flp-inTM-CHO (Invitrogen Cat n° R758-07) cells stably transfected with mGlyT1b cDNA. Glycine Uptake Inhibition […]) On day 1 mammalian cells, (Flp-inTM-CHO), transfected with […] cDNA, were plated at the density of 40,000 cells/well in complete F-12 medium, without hygromycin in 96-well culture plates. On day 2, the medium was aspirated and the cells were washed twice with uptake buffer (UB). The cells were then incubated for 20 min at 22° C. with either (i) no potential competitor, (ii) 10 mM non-radioactive glycine, (iii) a concentration of a potential inhibitor. A range of concentrations of the potential inhibitor was used to generate data for calculating the concentration of inhibitor resulting in 50% of the effect (e.g. […] The plates were incubated with gentle shaking, and the reaction was stopped by aspiration of the mixture and washing (three times) with ice-cold UB. The cells were lysed with scintillation liquid, shaken 3 hours and the radioactivity in the cells was counted using a scintillation counter.
row,pIC50,SMILES
1,6.68,"C[C@H](Oc1ccc(S(C)(=O)=O)cc1C(=O)N1CCC(COc2ccc(C#N)cc2)C1)C(F)(F)F (mixture of isomers) [Example 32, rac-4-{1-[5-Methanesulfonyl-2-((S)-2,2,2-trifluoro-1-methyl-ethoxy)-benzoyl]-pyrrolidin-3-ylmethoxy}-benzonitrile]"
2,6.70,"C[C@H](Oc1ccc(S(C)(=O)=O)cc1C(=O)N1CCC(COc2ccc(Cl)cc2)C1)C(F)(F)F (mixture of isomers) [Example 29, rac-[3-(4-Chloro-phenoxymethyl)-pyrrolidin-1-yl]-[5-methanesulfonyl-2-((S)-2,2,2-trifluoro-1-methyl-ethoxy)-phenyl]-methanone]"

# Same assay, conditions: [3H]-glycine uptake in Flp-in-CHO cells stably transfected with mGlyT1b cDNA; 20 min preincubation at 22° C.; read-out: IC50 (μM) at GlyT-1
row,IC50,SMILES
1,0.24 µM,"CS(=O)(=O)c1ccc(OCC2CCC2)c(C(=O)N2CCC(Cc3ccc(C(F)(F)F)cc3)C2)c1 (racemic) [Example 15, rac-(2-Cyclobutylmethoxy-5-methanesulfonyl-phenyl)-[3-(4-trifluoromethyl-benzyl)-pyrrolidin-1-yl]-methanone]"
2,0.13 µM,"C[C@H](Oc1ccc(S(C)(=O)=O)cc1C(=O)N1CCC(COc2ccc(Cl)c(Cl)c2)C1)C(F)(F)F (mixture of isomers) [Example 36, rac-[3-(3,4-Dichloro-phenoxymethyl)-pyrrolidin-1-yl]-[5-methanesulfonyl-2-((S)-2,2,2-trifluoro-1-methyl-ethoxy)-phenyl]-methanone]"
3,0.17 µM,"C[C@H](Oc1ccc(S(C)(=O)=O)cc1C(=O)N1CCC(COc2ccc([N+](=O)[O-])cc2)C1)C(F)(F)F (mixture of isomers) [Example 33, rac-[5-Methanesulfonyl-2-((S)-2,2,2-trifluoro-1-methyl-ethoxy)-phenyl]-[3-(4-nitro-phenoxymethyl)-pyrrolidin-1-yl]-methanone]"
4,0.11 µM,"C[C@H](Oc1ccc(S(C)(=O)=O)cc1C(=O)N1CCC(Cc2ccc(C(F)(F)F)cc2)C1)C(F)(F)F (mixture of isomers) [Example 11, rac-[5-Methanesulfonyl-2-((S)-2,2,2-trifluoro-1-methyl-ethoxy)-phenyl]-[3-(4-trifluoromethyl-benzyl)-pyrrolidin-1-yl]-methanone]"
5,0.17 µM,"COc1cccc(OCC2CCN(C(=O)c3cc(S(C)(=O)=O)ccc3O[C@@H](C)C(F)(F)F)C2)c1 (mixture of isomers) [Example 37, rac-[5-Methanesulfonyl-2-((S)-2,2,2-trifluoro-1-methyl-ethoxy)-phenyl]-[3-(3-methoxy-phenoxymethyl)-pyrrolidin-1-yl]-methanone]"
6,0.13 µM,"C[C@H](Oc1ccc(S(C)(=O)=O)cc1C(=O)N1CCC(COc2ccc(OC(F)(F)F)cc2)C1)C(F)(F)F (mixture of isomers) [Example 35, rac-[5-Methanesulfonyl-2-((S)-2,2,2-trifluoro-1-methyl-ethoxy)-phenyl]-[3-(4-trifluoromethoxy-phenoxymethyl)-pyrrolidin-1-yl]-methanone]"
7,0.09 µM,"CS(=O)(=O)c1ccc(OCC(F)(F)C(F)(F)F)c(C(=O)N2CCC(Cc3ccc(C(F)(F)F)cc3)C2)c1 (racemic) [Example 13, rac-[5-Methanesulfonyl-2-(2,2,3,3,3-pentafluoro-propoxy)-phenyl]-[3-(4-trifluoromethyl-benzyl)-pyrrolidin-1-yl]-methanone]"
8,0.5 µM,"CS(=O)(=O)c1ccc(-c2ccc(F)cc2)c(C(=O)N2CCC(Cc3ccc(C(F)(F)F)cc3)C2)c1 (racemic) [Example 14, rac-(4′-Fluoro-4-methanesulfonyl-biphenyl-2-yl)-[3-(4-trifluoromethyl-benzyl)-pyrrolidin-1-yl]-methanone]"
9,0.27 µM,"Cc1ccc(OCC2CCN(C(=O)c3cc(S(C)(=O)=O)ccc3O[C@@H](C)C(F)(F)F)C2)cc1 (mixture of isomers) [Example 30, rac-[5-Methanesulfonyl-2-((S)-2,2,2-trifluoro-1-methyl-ethoxy)-phenyl]-(3-p-tolyloxymethyl-pyrrolidin-1-yl)-methanone]"
10,0.45 µM,"C[C@H](Oc1ccc(S(C)(=O)=O)cc1C(=O)N1CCC(COc2ccc(-c3ccccc3)cc2)C1)C(F)(F)F (mixture of isomers) [Example 31, rac-[3-(Biphenyl-4-yloxymethyl)-pyrrolidin-1-yl]-[5-methanesulfonyl-2-((S)-2,2,2-trifluoro-1-methyl-ethoxy)-phenyl]-methanone]"
11,0.32 µM,"CS(=O)(=O)c1ccc(OC2CCCC2)c(C(=O)N2CCC(Cc3ccc(C(F)(F)F)cc3)C2)c1 (racemic) [Example 16, rac-(2-Cyclopentyloxy-5-methanesulfonyl-phenyl)-[3-(4-trifluoromethyl-benzyl)-pyrrolidin-1-yl]-methanone]"
12,0.22 µM,"C[C@H](Oc1ccc(S(C)(=O)=O)cc1C(=O)N1CCC(c2ccc(C(F)(F)F)cc2)C1)C(F)(F)F (mixture of isomers) [Example 2, rac-[5-Methanesulfonyl-2-((S)-2,2,2-trifluoro-1-methyl-ethoxy)-phenyl]-[3-(4-trifluoromethyl-phenyl)-pyrrolidin-1-yl]-methanone]"
